Reference: US9139658B2, “Medicament for treatment cancer” (SUMITOMO DAINIPPON PHARMA CO., LTD., priority 2000, dated 2015)
Structures can show the parent of a compound that is named as a salt. Where two headings read alike, the source gives them in different places.

Columns and labels:
[1] = Cardiotoxicity test using monkey (combination with Herceptin); conditions: rhesus monkey, intravenous, amrubicin hydrochloride at two times the dosage of doxorubicin hydrochloride
Procedure: The administration of amrubicin hydrochloride at a dosage of two times of doxorubicin hydrochloride is carried out on the basis of therapeutic dosages of both agents.
Into vein of a rhesus monkey, is administered doxorubicin at a dose of 2.92 mg/kg (35 mg/m^2), 7-8 times with three weeks intervals.
Accordingly, the agent-administered groups are set to be as follows:
1) agent non-administered group
2) doxorubicin hydrochloride 2-4 mg/kg, iv, 8q3W
4) amrubicin hydrochloride 4-8 mg/kg, iv, 8q3W
On 140-150 days post initiation of the administration, the animal is dissected, and histopathological diagnosis of the heart is carried out. Judging from the comparison of impairment of the myocardial cells, cardiotoxicity is evaluated.

[2] = system: Human breast cancer cell line BT-474; experiment: Evaluation of combination effects in vitro (WST-1 proliferation, Combination Index by Pegram method); type: cell-based; conditions: for CI value (Combination Index) / D1 (concentration of test agent in combination required for fa): combination with Herceptin; for Df1 (concentration of test agent as single agent required for fa): fa 0.9, BT-474; for combination effect with Herceptin, overall evaluation by Combination Index: summary of Examples 1-3, BT-474
Procedure: The effects of the combined use were evaluated by calculating a Combination Index (CI) following a method of Pegram et al. (M. Pegram et al., Oncogene, 18, 2241-2251 (1999)). Human breast cancer cell line BT-474 (a cell line in which HER2 is highly expressed) was obtained from ATCC (American Type Culture Collection). In a medium comprising equal amount of D-MEM (Dulbecco's Modified Eagle Medium) medium and F-12 (Nutrient Mixture F-12) medium which further contains 2.5 mM L-glutamine, 10% bovine fetal serum (FCS) and 2.5 μg/ml amphotericin B, human breast cancer cell line BT-474 was subcultured. The culture was carried out in an incubator with 5% CO2 at 37° C. This medium was also used in the following experiments. HerceptinTM was dissolved in a dissolution solution attached thereto to prepare a 21 mg/ml stock solution. Thereafter, the solution was used after 2 fold serial dilutions with the medium. […] Doxorubicin hydrochloride was obtained from Kyowa Hakko Kogyo Co., Ltd. A 2 mg/ml solution was prepared by adding 5 ml of sterile water to a 10 mg vial, and the solution was used. Human breast cancer cell line BT-474 on subculture were subjected to a trypsin treatment, suspended in the medium, and seeded on a 96-well plate. The seeding density was set to be 1×10^4 cells/0.1 ml/well. After seeding, cells were cultured overnight in an incubator with 5% CO2 at 37° C. (Day 0). […] The experiments were conducted with n=3 for the agent-treated group, and with n=6 for the non-treated (control) group. Until Day 4, culture was conducted in an incubator with 5% CO2 at 37° C. […] Thereafter, culture was conducted in an incubator with 5% CO2 at 37° C. for 2-4 hours. Absorbance of the culture was then measured with MICROPLATE READER Model 3550-UV (BioRad), and living cell number was measured. […] CI and inhibition rate of proliferation fa were calculated as described above.

[3] = in vitro experiment, Pegram et al. 1999; cited from earlier work
[4] = compared with amrubicin and amrubicinol; cited from earlier work
[5] = system: topoisomerase II; conditions: at a concentration which leads to 50% inhibition of cell proliferation; cited from earlier work
[6] = clinical use; cited from earlier work
[7] = rhesus monkey, iv 2.92 mg/kg (35 mg/m^2), 7-8 times with three weeks intervals, 140-150 days post initiation; cited from earlier work
[8] = rabbit chronic experimental model, compared with doxorubicin; cited from earlier work
[9] = metabolite obtained by reduction in vivo; cited from earlier work
[10] = dosage ratio 2:1, fa 0.9, BT-474
[11] = dosage ratio 2:1, fa 0.9, BT-474, CI<1 synergistic, CI=1 additive
[12] = dosage ratio 40:1, fa 0.9, BT-474
[13] = dosage ratio 4:1, fa 0.9, BT-474
[14] = dosage ratio 8:1, fa 0.9, BT-474

SMILES	cardiotoxicity in combination with Herceptin [1]	CI value (Combination Index) [2, 10]	D1 (concentration of test agent in combination required for fa) [2, 10] [µg/mL]	combination effect with Herceptin judged from CI value [2, 11]	Df1 (concentration of test agent as single agent required for fa) [2] [µg/mL]	combination effect with Herceptin, overall evaluation by Combination Index [2]	stabilization of cleavable complex via topoisomerase II [5]	other results
COc1cccc2c1C(=O)c1c(O)c3c(c(O)c1C2=O)C[C@@](O)(C(=O)CO)C[C@@H]3O[C@H]1C[C@H](N)[C@H](O)[C@H](C)O1 [Doxorubicin hydrochloride, reference compound]	cardiotoxicity is strongly presented	0.92	0.373	additive effect	0.434			
CC(=O)[C@]1(N)Cc2c(O)c3c(c(O)c2[C@@H](O[C@H]2C[C@H](O)[C@H](O)CO2)C1)C(=O)c1ccccc1C3=O [Amrubicin hydrochloride, (+)-(7S,9S)-9-acetyl-9-amino-7-[(2-deoxy-β-D-erythro-pentopyranosyl)oxy]-7,8,9,10-tetrahydro-6,11-dihydroxy-5,12-naphthacenedione]	cardiotoxicity is not presented				7.542	marked synergistic effects		CI value (Combination Index) [2, 12]: 0.17; D1 (concentration of test agent in combination required for fa) [2, 12]: 1.267 µg/mL; combination effect with Herceptin judged from CI value [2, 12]: synergistic effect
CC(O)[C@]1(N)Cc2c(O)c3c(c(O)c2[C@@H](O[C@H]2C[C@H](O)[C@H](O)CO2)C1)C(=O)c1ccccc1C3=O.Cl (stereo partly drawn) [Amrubicinol hydrochloride]		0.38	0.239	synergistic effect	0.671	marked synergistic effects		CI value (Combination Index) [2, 13]: 0.33; D1 (concentration of test agent in combination required for fa) [2, 13]: 0.212 µg/mL; CI value (Combination Index) [2, 14]: 0.42; D1 (concentration of test agent in combination required for fa) [2, 14]: 0.279 µg/mL; combination effect with Herceptin judged from CI value ([2]; dosage ratio in the range of 2:1-8:1, fa 0.9, BT-474): synergistic effect
COc1cccc2c1C(=O)c1c(O)c3c(c(O)c1C2=O)C[C@@](O)(C(=O)CO)C[C@@H]3O[C@H]1C[C@H](N)[C@H](O)[C@H](C)O1 [doxorubicin]							does not stabilize the cleavable complex	combination effect with Herceptin [3]: additive effects; intercalation activity [4]: about ten times stronger than those of amrubicin and amrubicinol; cardiotoxicity in combination with Herceptin [6]: cardiotoxicity is developed at a high frequency; histopathological observation of the heart [7]: vacuolation of myocardial cells
CC(=O)[C@]1(N)Cc2c(O)c3c(c(O)c2[C@@H](O[C@H]2C[C@H](O)[C@H](O)CO2)C1)C(=O)c1ccccc1C3=O [amrubicin, (+)-(7S,9S)-9-acetyl-9-amino-7-[(2-deoxy-β-D-erythro-pentopyranosyl)oxy]-7,8,9,10-tetrahydro-6,11-dihydroxy-5,12-naphthacenedione]							sufficiently stabilize a cleavable complex	cardiotoxicity [8]: far less than that of doxorubicin
CC(O)[C@]1(N)Cc2c(O)c3c(c(O)c2[C@@H](O[C@H]2C[C@H](O)[C@H](O)CO2)C1)C(=O)c1ccccc1C3=O (stereo partly drawn) [amrubicinol]							sufficiently stabilize a cleavable complex	anti-cancer activity of metabolite compared with amrubicin [9]: stronger anti-cancer activity
